EC50 data for 1 compound are collected here from ChEMBL document CHEMBL3632477 (2015).

Structures are written as SMILES.

The test has as its target Glucagon-like peptide 1 receptor (Homo sapiens, UniProt P43220). Description: Agonist activity at human GLP-1R expressed in CHO-K1 cells assessed as increase in cAMP level incubated for 30 mins. It counts as functional, cell-based.

Sequence of Glucagon-like peptide 1 receptor (P43220 whole entry): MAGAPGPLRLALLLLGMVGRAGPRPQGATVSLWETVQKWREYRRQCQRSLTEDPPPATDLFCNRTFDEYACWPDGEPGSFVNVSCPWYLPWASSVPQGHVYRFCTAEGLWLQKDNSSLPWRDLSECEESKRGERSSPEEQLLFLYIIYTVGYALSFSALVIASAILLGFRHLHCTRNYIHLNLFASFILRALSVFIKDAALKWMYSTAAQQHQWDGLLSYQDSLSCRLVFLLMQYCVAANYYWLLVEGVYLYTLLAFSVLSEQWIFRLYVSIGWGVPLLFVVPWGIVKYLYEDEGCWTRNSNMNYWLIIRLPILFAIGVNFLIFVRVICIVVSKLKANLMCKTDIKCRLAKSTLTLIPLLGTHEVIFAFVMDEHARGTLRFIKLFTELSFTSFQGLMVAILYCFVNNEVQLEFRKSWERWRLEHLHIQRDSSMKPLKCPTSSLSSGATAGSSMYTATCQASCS

Regarding `CC[C@H](C)[C@@H]1NC(=O)[C@H](CCC(=O)O)NC(=O)[C@@H]2CCCN2C(=O)[C@H](Cc2cnc[nH]2)NC(=O)[C@H](CC(=O)O)NC(=O)[C@H](Cc2ccc(O)cc2)NC(=O)[C@H](CC(N)=O)NC(=O)[C@@H]2CSSC[C@@H]3NC(=O)CNC(=O)CNC(=O)CNC(=O)[C@H](C)NC(=O)[C@H](C)NC(=O)CNC(=O)CNC(=O)[C@H](CSSC[C@H](NC3=O)C(=O)N[C@@H](CO)C(=O)N[C@@H](CC(=O)O)C(=O)N3CCC[C@H]3C(=O)N[C@@H](CCCNC(=N)N)C(=O)N2)NC1=O`, the EC50 came out at 0.14 nM.
